Results on 1 compound are retold here after US20170368049A1 (HANMI PHARM. CO., LTD., priority 2015, published 2017).

The data set in a line: Photoreaction test with cholecalciferol (photostability chamber). It counts as physicochemical. The settings on record: photostability chamber, 1,200,000 LUX, 18.44 hours. Here is the method: Cholecalciferol (vitamin D3) also has poor physiochemical stability and may not ensure stability with time. Generally, cholecalciferol is known to be susceptible to moisture, light, and heat. […] The amount of trans-vitamin D3 (after storage in a photostability chamber under 1,200,000 LUX for 18.44 hours) was increased by about 1.2% with respect to initial level, while the amount of vitamin D3 was reduced by about 10%.

Consider `C=C1CC[C@H](O)C/C1=C/C=C1\CCC[C@]2(C)[C@@H]([C@H](C)CCCC(C)C)CC[C@@H]12` [cholecalciferol, Cholecalciferol], for which the “increase of the amount of trans-vitamin D3 with respect to initial level” value was “about 1.2%” and the “reduction of the amount of vitamin D3” value is reported as “about 10%”.
